Assay results: patent US20250017888A1, “COMPOUNDS FOR TREATING DISEASES ASSOCIATED WITH HYALURONAN OVERPRODUCTION” (THE ROYAL VETERINARY COLLEGE, priority 2021, published 2025)
pIC50: −log10 of the molar value.

Assays:
[1] = tested on: fibroblasts; assay: Alamar blue staining of fibroblasts; type: cell-based; details: Fibroblast
Procedure: (§1) The hyaluronan synthase activity (Prehm, P. and Schumacher, U., Biochem. Pharmacol. 2004, 68, 1401-1410), the cytotoxicity of the drugs (O'Brien, J. et al., Eur. J. Biochem. 2000, 267, 5421-5426), proteoglycan synthesis rate, hyaluronan (Prehm, P. J. Rheumatol., 2005, 32, 690-696) and proteoglycan (Bjornsson, S. Anal. Biochem. 1993, 210, 282-291) were determined as described. The effect of the prenylflavonoids on the MRP5 export rate was measured with fluorescein diacetate as described (Schulz, T., Schumacher, U., and Prehm, P., J Biol. Chem., 2007, 282, 20999-21004). The determination of the IC50 values on the phosphodiesterase 5 was performed according to the instructions of BPS Bioscience. The culture of bovine chondrocytes in alginate beads and of explants of bovine cartilage was described previously (Deiters, B. and Prehm, P. Arthritis Res. Ther., 2008, 10, R8; Prehm, P. J. Rheumatol. 2005, 32, 690-696). Osteoarthritic reactions were induced in chondrocytes growing in alginate beads by incubation with medium containing 10 ng/ml of II-17 for 6 days, and in cartilage explants with 10 ng/ml of II-17 and 5 ng/ml of II-1α. The supernatants were withdrawn and stored at −20° C. for later analysis. The explants were weighed and extracted with 1 ml of 4 M guanidinium-HCl for 72 hours at 4° C. The proteoglycan concentrations were determined in the extracts.

[2] = tested on: bovine cartilage explants; assay: Proteoglycan loss from interleukin activated bovine cartilage explants; type: cell-based
Procedure: Cartilage explants were weighed (average wet weight: 20 mg) incubated in the absence and presence of IL-1 (2 ng/ml) and the inhibitors at various concentrations for 5 days. The tissues were extracted with 1.5 ml of a solution of 4 M guanidinium hydrochloride, 0.1 M ε-aminohexanoid acid, 5 mM benzamidine, 10 mM N-ethylmaleinimide, 0.5 mM phenylmethylsulfonyl fluoride for 3 days at 4° C. The solution was centrifuged for 5 min at 10.000 g and the proteoglycans were determined in the supernatant by the alcian blue method as described (Bjornsson, S., Anal. Biochem., 1993, 210, 282-291).
Bovine cartilage explants were incubated in the absence and presence of interleukin for stimulation of osteoarthritic reactions and the indicated concentrations of the xanthohumol-betaine (FIG. 6A), xanthohumol-prothiazole (FIG. 6B), quercetin-prothiazole (FIG. 6C), quercetin (FIG. 6D) and xanthohumol (FIG. 6E) for 5 days. The cartilage explants were weighed and the proteoglycan concentrations were determined in the cartilage explants (solid bars) and culture supernatants (open bars).

[3] = Alamar blue toxicity assay (FIG. 1); type: cell-based; details: below concentrations of 100 μM
Procedure: as §1
The toxicity was determined by the Alamar blue assay.

[4] = tested on: Str/ort mice; assay: Health evaluation of treated Str/ort mice; type: in vivo, mouse; details: 50 mg/kg intraperitoneally, 18 weeks, vs vehicle
Procedure: At 10-13 weeks of age, 21 male Str/ort mice (n=7/group) were assigned randomly to vehicle, hylin-betaine and xantho-betaine groups and were treated intraperitoneally 18 weeks with either vehicle (5% DMSO in 95% peanut oil), 50 mg/kg compound of Example 1 (“hylin-betaine”) in 5% DMSO and 95% peanut oil or 50 mg/kg compound of Example 2 (“xantho-betaine”) in 5% DMSO and 95% peanut oil.
To assess the health status after hylin-betaine and xantho-betaine treatment, mice were monitored for their health status. The monitoring criteria were body surface temperature, body weight, gait, coat condition, skin tenting for dehydration, hunching, activity, breathing rate and general body condition. Mice were scored blind for each one of these criteria from 1-5 except for body weight and temperature.

health status: weight, hunching, gait, activity, vocalisation and respiration scores, coat condition [4]: does not alter
Structure (SMILES): COc1cc(O)c(CC=C(C)C)c(O)c1C(=O)/C=C/c1ccc(OC(=O)C[N+](C)(C)C)cc1.[Cl-] [Xantho-betaine, (E)-2-(4-(3-(2,4-dihydroxy-6-methoxy-3-(3-methylbut-2-en-1-yl)phenyl)-3-oxoprop-1-en-1-yl)phenoxy)-N,N,N-trimethyl-2-oxoethanaminium chloride]
pIC50 [1]: 4.10
pIC50 ([2]; Bos taurus, read-out: IC50 Inhibition of proteoglycan loss): 6.52
inhibition of proteoglycan loss (protective effect) ([2]; interleukin stimulated, 5 days): similarly effective
toxicity in Alamar blue assay [3]: not toxic
